Source: ChEMBL document CHEMBL1136519, “Indole amide hydroxamic acids as potent inhibitors of histone deacetylases” (Bioorg Med Chem Lett, 2003)

Legend:
HT-1080 = assay: Antiproliferative activity against HT1080 (human fibrosarcoma) cell line.; type: functional, cell-based
[1] = target: Histone deacetylase (HDAC1 and HDAC2) (Homo sapiens, UniProt Q13547+Q92769); assay: Inhibitory activity was tested against histone deacetylase (HDAC).; type: protein assay
MDA-MB-435 = assay: cells; type: functional, cell-based; settings: Homo sapiens
Description: Antiproliferative activity against MDA-435 (human breast carcinoma) cell line.

Mus musculus [2] = assay: Antitumor activity against HT1080 cell line in mouse xenograft model after orally dosed once every other day at 100 mg/kg; type: functional; settings: HT-1080, route oral
Mus musculus [3] = assay: Antitumor activity against HT1080 cell line in mouse xenograft model after orally dosed once every other day at 30 mg/kg; type: functional; settings: HT-1080, route oral

| SMILES | IC50 (HT-1080) | IC50 [1] | IC50 (MDA-MB-435) | inhibition in vivo at 100 mg/kg (Mus musculus [2]) | inhibition in vivo at 30 mg/kg (Mus musculus [3]) |
| --- | --- | --- | --- | --- | --- |
| O=C(CCCCCCNC(=O)c1cc2cc(F)ccc2[nH]1)NO | 480 nM | 5.4 nM | 250 nM | – | – |
| O=C(CCCCCCNC(=O)c1cn(Cc2ccccc2)c2ccccc12)NO | 1900 nM | 12 nM | 850 nM | – | – |
| O=C(CCCCCCNC(=O)c1cn(-c2ccc(F)cc2)c2ccccc12)NO | 990 nM | 11.8 nM | 380 nM | – | – |
| O=C(CCCCCCNC(=O)c1ccccn1)NO | – | 1680 nM | – | – | – |
| O=C(CCCCCNC(=O)c1cc2ccccc2[nH]1)NO | – | 12.5 nM | – | – | – |
| O=C(CCCCCCNC(=O)c1cc2cc(Cl)ccc2o1)NO | 180 nM | 15 nM | 190 nM | – | – |
| COc1ccc2oc(C(=O)NCCCCCCC(=O)NO)cc2c1 | 380 nM | 15 nM | 300 nM | – | – |
| O=C(CCCCCCNC(=O)c1ccc2cc[nH]c2c1)NO | – | 56.5 nM | – | – | – |
| COc1cccc2[nH]c(C(=O)NCCCCCCC(=O)NO)cc12 | 120 nM | 3.1 nM | 130 nM | – | – |
| O=C(CCCCCCNC(=O)c1cccc2cc[nH]c12)NO | – | 41 nM | – | – | – |
| COc1cc(OC)c2cc(C(=O)NCCCCCCC(=O)NO)[nH]c2c1 | 260 nM | 3.1 nM | 600 nM | – | – |
| O=C(CCCCCCNC(=O)c1cn(-c2ccccc2)c2ccccc12)NO | 2500 nM | 3.5 nM | 760 nM | – | – |
| O=C(CCCCCNC(=O)c1ccc2cc[nH]c2c1)NO | – | 36.4 nM | – | – | – |
| O=C(CCCCCCNC(=O)c1ccc2[nH]ccc2c1)NO | – | 31.4 nM | – | – | – |
| O=C(CCCCCCNC(=O)c1cccc2[nH]ccc12)NO | – | 80.3 nM | – | – | – |
| COc1ccc2cc(C(=O)NCCCCCCC(=O)NO)[nH]c2c1 | 340 nM | 9.9 nM | 230 nM | – | – |
| Cn1cc(C(=O)NCCCCCCC(=O)NO)c2ccccc21 | 780 nM | 56 nM | 390 nM | – | – |
| O=C(CCCCCNC(=O)c1cccc2cc[nH]c12)NO | – | 37.6 nM | – | – | – |

| SMILES | IC50 (HT-1080) | IC50 [1] | IC50 (MDA-MB-435) | inhibition in vivo at 100 mg/kg (Mus musculus [2]) | inhibition in vivo at 30 mg/kg (Mus musculus [3]) |
| --- | --- | --- | --- | --- | --- |
| O=C(CCCCCCNC(=O)c1ccc[nH]1)NO | – | 524 nM | – | – | – |
| O=C(CCCCCCNC(=O)c1cc2ccccc2o1)NO | 760 nM | 29.6 nM | 490 nM | – | – |
| O=C(CCCCCCNC(=O)c1cc2ccccc2[nH]1)NO | – | 14.6 nM | – | 39% | 36% |
| O=C(CCCCCCNC(=O)c1cn(-c2ccc(Br)cc2)c2ccccc12)NO | 490 nM | 18.9 nM | 340 nM | – | – |
| Cc1ccc2[nH]c(C(=O)NCCCCCCC(=O)NO)cc2c1 | 200 nM | 6.3 nM | 170 nM | – | – |
| CC1c2ccccc2CC1C(=O)NCCCCCCC(=O)NO (stereo not given) | – | 732 nM | – | – | – |
| O=C(CCCCCCNC(=O)c1cc2cc(OC(F)(F)F)ccc2[nH]1)NO | 890 nM | 16 nM | 300 nM | – | – |
| O=C(CCCCCNC(=O)c1ccc2[nH]ccc2c1)NO | – | 17 nM | – | – | – |
| Cc1c(C(=O)NCCCCCCC(=O)NO)oc2ccccc12 | – | 12.5 nM | – | – | – |
| COc1cccc2cc(C(=O)NCCCCCCC(=O)NO)oc12 | 710 nM | 17 nM | 320 nM | – | – |
| O=C(CCCCCNC(=O)c1c[nH]c2ccccc12)NO | – | 39.8 nM | – | – | – |
| O=C(CCCCCCNC(=O)c1cc2cc(Br)ccc2[nH]1)NO | 480 nM | 3.5 nM | 470 nM | – | – |
| O=C(CCCCCNC(=O)c1cccc2[nH]ccc12)NO | – | 87.6 nM | – | – | – |
| O=C(CCCCCCNC(=O)c1c[nH]c2ccccc12)NO | – | 37.5 nM | – | – | – |
| COc1ccc2[nH]c(C(=O)NCCCCCCC(=O)NO)cc2c1 | 720 nM | 6.5 nM | 1200 nM | – | – |
| Cn1c(C(=O)NCCCCCCC(=O)NO)cc2ccccc21 | 840 nM | 47 nM | 610 nM | – | – |
| O=C(CCCCCCNC(=O)c1cc2cc(OCc3ccccc3)ccc2[nH]1)NO | 1500 nM | 13.6 nM | 800 nM | – | – |
